In one series the target is T1, hGLP1R (Homo sapiens, UniProt P43220).
T1 construct: expressed in transfected cells; host or cells: HEK-293 CRE-luciferase reporter cells
As to the kind of experiment: hGLP1R CreLuc assay in 0.5% and 100% plasma (HEK-293 CRE-luciferase reporter cells). The class given is cell-based. As to conditions: HEK-293 reporter cells. For orientation: In a reporter assay the amount or activity of a reporter protein is the signal.

Series [1] can be described thus: Solubility in 0.1 M phosphate buffer at pH 7. Particulars: 0.1 M phosphate buffer at pH 7, 10 mg/mL final peptide concentration, shaking 2 hours at room temperature, peptides as TFA-salts; measured sample pH 6.5-7.0. Type of series: physicochemical.
Series [2] is described as follows: Mouse PK after intravenous application. The class given is in vivo. As to conditions: plasma, male NMRI mice, intravenous 30-60 nmol/kg, non-compartmental analysis. The essentials: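 Male NMRI mice (30–40 g) dosed 30-60 nmol/kg by tail vein in 50 mM phosphate buffer pH 7.4/3.5% mannitol. Saphenous EDTA blood sampled from conscious animals up to 56 h; plasma peptide quantified by LC-MS. Parameters from non-compartmental analysis of individual profiles.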

The next series concerns Normal NMRI Mice. As to the kind of experiment: Effect on acute food intake in normal NMRI mice. The class given is in vivo. Particulars: male NMRI mice, single subcutaneous dose 100 nmol/kg, 24 hours food intake normalized to vehicle group. How it is done: Male NMRI mice were obtained from Janvier (Janvier Labs, France) or from Charles River (Charles River Research Models & Services Germany GmbH) at the age of 3 weeks. The animals get a microchip (Datamars, Slim Microchip T-SL) for individual identification after delivery. They were housed with 4 mice per cage under a 12/12 dark-light cycle, light off at 3 p.m. Room temperature was controlled to 21° C.+/−1° C. and humidity 60%+/−20%. Mice had ad libitum access to regular rodent chow (KLIBA Nafag 3040 or Altromin 1324, Brogaarden, Denmark) and tap water.
Latest transfer into the HM2-System of MBRose, Denmark (real-time monitoring system of food- and water intake) of the animals 5 days before study start, to allow acclimatization to experimental conditions. As the animals were uniquely identified with the microchips, each individual animal was identified by its own microchip upon entry and exit from the food channel via antennae. Randomization of the mice for each study group (n=8; age earliest 6 weeks old) was based on food intake (middle of last three days 24 h-interval) and bodyweight directly before start of the study. A vehicle treated (50 mM phosphate buffer pH 7.4 with 3.5% mannitol) group was included in each experiment. To have the same nutrition standard for each animal the food access was locked eight hours before dark phase. One hour before night, the animals were once treated subcutaneously with the test peptide. Food intake was reported hourly for a period of 24 hours.

The target of the next series is T2, hGIPR (Homo sapiens, UniProt P48546).
T2 construct: expressed in transfected cells; host or cells: CHO CRE-luciferase reporter cells
T2 sequence (P48546 22-466): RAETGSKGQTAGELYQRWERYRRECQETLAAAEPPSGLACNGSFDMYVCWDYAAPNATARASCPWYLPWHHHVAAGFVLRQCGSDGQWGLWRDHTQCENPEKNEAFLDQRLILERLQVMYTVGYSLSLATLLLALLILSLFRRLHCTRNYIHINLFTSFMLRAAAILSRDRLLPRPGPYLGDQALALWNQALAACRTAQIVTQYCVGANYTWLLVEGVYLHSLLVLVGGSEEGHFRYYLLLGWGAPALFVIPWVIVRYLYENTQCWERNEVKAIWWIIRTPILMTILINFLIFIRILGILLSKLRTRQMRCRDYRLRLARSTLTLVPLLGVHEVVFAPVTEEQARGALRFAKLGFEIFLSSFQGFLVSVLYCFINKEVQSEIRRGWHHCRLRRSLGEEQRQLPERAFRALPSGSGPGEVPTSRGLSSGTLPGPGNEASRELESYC
As to the kind of experiment: hGIPR CreLuc assay in 0.5% and 100% plasma (CHO CRE-luciferase reporter cells). Type of series: cell-based.

Setting [3] is: 0.5% human plasma, read-out: hGLP1R 0.5% hP.
[4] abbreviates: 0.5% human plasma, read-out: hGIPR 0.5% hP.
[5] abbreviates: 100% human plasma, read-out: hGIPR 100% hP.
Setting [6] is: 100% human plasma, read-out: hGLP1R 100% hP.

Like-named read-outs stand apart in the source and are kept apart here.

T1 sequence (P43220 24-463): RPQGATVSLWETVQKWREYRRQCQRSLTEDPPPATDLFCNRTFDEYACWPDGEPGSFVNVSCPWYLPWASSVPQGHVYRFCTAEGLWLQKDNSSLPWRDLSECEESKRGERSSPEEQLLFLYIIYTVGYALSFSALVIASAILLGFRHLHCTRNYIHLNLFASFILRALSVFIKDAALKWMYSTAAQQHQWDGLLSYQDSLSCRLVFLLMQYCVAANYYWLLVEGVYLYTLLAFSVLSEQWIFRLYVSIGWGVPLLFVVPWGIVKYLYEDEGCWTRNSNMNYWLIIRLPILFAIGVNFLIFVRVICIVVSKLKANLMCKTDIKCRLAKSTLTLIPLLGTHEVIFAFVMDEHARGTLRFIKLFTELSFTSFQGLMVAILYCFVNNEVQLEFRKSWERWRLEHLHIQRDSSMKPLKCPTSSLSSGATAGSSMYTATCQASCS

With `CC[C@H](C)[C@H](NC(=O)[C@H](Cc1ccccc1)NC(=O)[C@H](C)NC(=O)C(C)(C)NC(=O)[C@H](CCC(N)=O)NC(=O)[C@H](C)NC(=O)[C@H](CCC(N)=O)NC(=O)[C@H](CCCCN)NC(=O)[C@H](CCC(=O)O)NC(=O)[C@H](CC(C)C)NC(=O)[C@](C)(CC(C)C)NC(=O)[C@@H](NC(=O)[C@H](CO)NC(=O)[C@H](Cc1ccc(O)cc1)NC(=O)[C@H](CC(=O)O)NC(=O)[C@H](CO)NC(=O)[C@@H](NC(=O)[C@H](Cc1ccccc1)NC(=O)[C@@H](NC(=O)CNC(=O)[C@H](CCC(=O)O)NC(=O)C(C)(C)NC(=O)[C@@H](N)Cc1ccc(O)cc1)[C@@H](C)O)[C@@H](C)O)[C@@H](C)CC)C(=O)N[C@@H](CCCNC(=N)N)C(=O)N[C@@H](Cc1c[nH]cn1)C(=O)N[C@@H](CC(C)C)C(=O)N[C@H](C(=O)N[C@@H](CC(N)=O)C(=O)N[C@@H](CCCCNC(=O)[C@@H](N)CCCCNC(=O)CC[C@H](NC(=O)CC[C@H](NC(=O)CC[C@H](NC(=O)CC[C@H](NC(=O)CC[C@H](NC(=O)CC[C@H](NC(=O)CCCCCCCCCCCCCCCCCCC(=O)O)C(=O)O)C(=O)O)C(=O)O)C(=O)O)C(=O)O)C(=O)O)C(=O)NC(C)(C)C(=O)N[C@H](C(=O)N[C@@H](CCCNC(=N)N)C(=O)N[C@@H](CCC(N)=O)C(=O)N[C@@H](CCCNC(=N)N)C(=O)N[C@@H](Cc1ccc(O)cc1)C(N)=O)[C@@H](C)O)[C@@H](C)CC` [Compound 53, Y-Aib-E-G-T-F-T-S-D-Y-S-I-aMeL-L-E-K-Q-A-Q-Aib-A-F-I-R-H-L-I-N-K(1,3)-Aib-T-R-Q-R-Y-NH2.C20DA-gGlu-gGlu-gGlu-gGlu-gGlu-gGlu-eLys(1,2)], the EC50 at hGLP1R (setting [3]) was 0.3 nM; on hGIPR (setting [4]), 0.1 nM; on hGIPR (setting [5]), 1.7 nM. Further, the solubility at 2 h in series [1] is 10000 µg/mL. In series [2], this molecule yielded a mean residence time MRT of 14.4 h. In the series on Normal NMRI Mice, the “Acute Food Intake 24 hours 100 nmol/kg [% CTL]” value is reported as 47 % CTL.
With `CC[C@H](C)[C@H](NC(=O)[C@H](CC(C)C)NC(=O)[C@H](Cc1c[nH]cn1)NC(=O)[C@H](CCCNC(=N)N)NC(=O)[C@@H](NC(=O)[C@H](Cc1ccccc1)NC(=O)[C@H](C)NC(=O)C(C)(C)NC(=O)[C@H](CCC(N)=O)NC(=O)[C@H](C)NC(=O)[C@H](CCC(N)=O)NC(=O)[C@H](CCCCN)NC(=O)[C@H](CCC(=O)O)NC(=O)[C@H](CC(C)C)NC(=O)[C@](C)(CC(C)C)NC(=O)[C@@H](NC(=O)[C@H](CO)NC(=O)[C@H](Cc1ccc(O)cc1)NC(=O)[C@H](CC(=O)O)NC(=O)[C@H](CO)NC(=O)[C@@H](NC(=O)[C@H](Cc1ccccc1)NC(=O)[C@@H](NC(=O)CNC(=O)[C@H](CCC(=O)O)NC(=O)C(C)(C)NC(=O)[C@@H](N)Cc1ccc(O)cc1)[C@@H](C)O)[C@@H](C)O)[C@@H](C)CC)C(C)C)C(=O)N[C@@H](CC(N)=O)C(=O)N[C@@H](CCCCNC(=O)[C@@H](N)CCCCNC(=O)CC[C@H](NC(=O)CC[C@H](NC(=O)CC[C@H](NC(=O)CC[C@H](NC(=O)CC[C@H](NC(=O)CC[C@H](NC(=O)CCCCCCCCCCCCCCCCC(=O)O)C(=O)O)C(=O)O)C(=O)O)C(=O)O)C(=O)O)C(=O)O)C(=O)NC(C)(C)C(=O)N[C@H](C(=O)N[C@@H](CCCNC(=N)N)C(=O)N[C@@H](CCC(N)=O)C(=O)N[C@@H](CCCNC(=N)N)C(=O)N[C@@H](Cc1ccc(O)cc1)C(N)=O)[C@@H](C)O` [Compound 119, Y-Aib-E-G-T-F-T-S-D-Y-S-I-aMeL-L-E-K-Q-A-Q-Aib-A-F-V-R-H-L-I-N-K(1,3)-Aib-T-R-Q-R-Y-NH2.C18DA-gGlu-gGlu-gGlu-gGlu-gGlu-gGlu-eLys(1,2)], the EC50 on hGLP1R (setting [3]) came out at 0.1 nM; at hGLP1R (setting [6]) it was 0.4 nM; on hGIPR (setting [4]), 0.1 nM; on hGIPR (setting [5]) it was 0.8 nM. Moreover, the solubility at 2 h in series [1] turned out to be 9000 µg/mL. The same molecule gave a mean residence time MRT in series [2] of 9.6 h. Also, the “Acute Food Intake 24 hours 100 nmol/kg [% CTL]” value in the series with Normal NMRI Mice is 34 % CTL.
As for `CC[C@H](C)[C@H](NC(=O)[C@H](CC(C)C)NC(=O)[C@H](Cc1c[nH]cn1)NC(=O)[C@H](CCCNC(=N)N)NC(=O)[C@@H](NC(=O)[C@H](Cc1ccccc1)NC(=O)[C@H](C)NC(=O)C(C)(C)NC(=O)[C@H](CCC(N)=O)NC(=O)[C@H](C)NC(=O)[C@H](CCC(N)=O)NC(=O)[C@H](CCCCN)NC(=O)[C@H](CCC(=O)O)NC(=O)[C@H](CC(C)C)NC(=O)[C@](C)(CC(C)C)NC(=O)[C@@H](NC(=O)[C@H](CO)NC(=O)[C@H](Cc1ccc(O)cc1)NC(=O)[C@H](CC(=O)O)NC(=O)[C@H](CO)NC(=O)[C@@H](NC(=O)[C@H](Cc1ccccc1)NC(=O)[C@@H](NC(=O)CNC(=O)[C@H](CCC(=O)O)NC(=O)C(C)(C)NC(=O)[C@@H](N)Cc1ccc(O)cc1)[C@@H](C)O)[C@@H](C)O)[C@@H](C)CC)C(C)C)C(=O)N[C@@H](CC(N)=O)C(=O)N[C@@H](CCCCNC(=O)[C@@H](N)CCCCNC(=O)CC[C@H](NC(=O)CC[C@H](NC(=O)CC[C@H](NC(=O)CC[C@H](NC(=O)CC[C@H](NC(=O)CC[C@H](NC(=O)CCCCCCCCCCCCCCCCCCC(=O)O)C(=O)O)C(=O)O)C(=O)O)C(=O)O)C(=O)O)C(=O)O)C(=O)NC(C)(C)C(=O)N[C@H](C(=O)N[C@@H](CCCNC(=N)N)C(=O)N[C@@H](CCC(N)=O)C(=O)N[C@@H](CCCNC(=N)N)C(=O)N[C@@H](Cc1ccc(O)cc1)C(N)=O)[C@@H](C)O` [Compound 150, Y-Aib-E-G-T-F-T-S-D-Y-S-I-aMeL-L-E-K-Q-A-Q-Aib-A-F-V-R-H-L-I-N-K(1,3)-Aib-T-R-Q-R-Y-NH2.C20DA-gGlu-gGlu-gGlu-gGlu-gGlu-gGlu-eLys(1,2)], the EC50 stood at 0.5 nM on hGLP1R (setting [3]), 1.7 nM at hGLP1R (setting [6]), 0.1 nM at hGIPR (setting [4]) and 2.8 nM on hGIPR (setting [5]). Moreover, the solubility at 2 h in series [1] came out at 4800 µg/mL. Besides, the mean residence time (MRT) in series [2] came to 15.9 h. Also, the “Acute Food Intake 24 hours 100 nmol/kg [% CTL]” value in the series with Normal NMRI Mice was found to be 46 % CTL.

As usually defined, the solubility is the concentration that dissolves in the medium under given conditions. Broadly, the MRT is a mean duration of stay, worked out from the concentration-time curve.

The values are drawn from US20250382344A1, “Soluble GLP1/GIP/NPY2 Receptor Triple Agonists” (Boehringer Ingelheim International GmH, priority 2024, published 2025).
